Assay results reported in patent publication US20100086546A1, “Toll-LIke Receptor 4 Deficiency and Downstream Effectors Cause Pulmonary Emphysema” (Yale University, priority 2007, published 2010).

Legend:
Tlr4−/− MLECs = assay: Elastolytic activity in Tlr4−/− MLECs treated with DPI, NAC or apocynin; format: cell-based, mouse; conditions: DPI 10 μM, NAC 100 μM, apocynin 10 μM; 24 hours
Experimental: MLECs were isolated by as described by Kuhlencordt et al. (Kuhlencordt P. J., et al., 2004, Am. J. Physiol. Cell Physiol. 286:C1195C1202.), with some modifications. Briefly, lungs were extracted, minced, and digested for 1 hour at 37° C. with 0.1% collagenase (Roche Diagnostics) in RPMI-1640 with 100 U/ml penicillin G and 100 μg/ml streptomycin. The digest was passed through a 100-μm cell strainer to remove undigested tissue fragments. Cells were pelleted at 200 g for 5 minutes; resuspended in MLEC medium containing 20% FBS, 40% DMEM, and 40% F12 with 100 U/ml penicillin G and 100 μg/ml streptomycin; and plated onto 0.1% gelatin-coated T75 flasks. Cells were washed after 24 hours and cultured for 2-4 days. Cells were trypsinized with 2 ml trypsin/EDTA, PBS added, and spun for 5 minutes at 200 g to remove the supernatant. Cells were resuspended in 2% FBS containing 10 μl biotin-labeled rat anti-mouse CD31 (PECAM-1) antibody (BD Biosciences—Pharmingen). After incubation on ice for 30 minutes, the cells were washed with streptavidin magnetic beads (New England Biolabs Inc.). Cells were washed with 2% FBS, resuspended in 5 ml of 2% FBS, and incubated on ice for 30 minutes. The cells were then placed on the magnet for 5 minutes, and unbound cells were removed while bound cells were resuspended in medium and plated onto a 0.1% gelatin-coated T25 flask. CD31 staining and flow cytometry confirmed that greater than 95% of the cells were endothelial cells. […]
The elastolytic activities in lung tissues, BAL, and cell lysates was determined by hydrolysis of insoluble elastin and detected spectrophotometrically using elastin-Congo red as a substrate according to the method described previously (Rust L., et al., 1994, Methods Enzymol. 235:554-562). […] The optical density of the supernatant was measured at 485 nm with a DYNEX Revelation version 3.2 spectrophotometer. The elastolytic activity was calculated as ng elastase/μg protein in the lysates according to the standard curve established by the reaction of porcine elastase and elastin-Congo red.

Tlr4−/− mice [1] = assay: Total antioxidant capacity in BAL and serum of Tlr4−/− mice on antioxidant therapy; format: in vivo, mouse; conditions: NAC 1 g/kg or apocynin 3 mg/kg in drinking water from 3 weeks, sacrificed at 3 months; for total antioxidant content in serum: serum (data not shown)
Text: Tlr4^−/− and MyD88^−/− mice have been previously described (Zhang X., et al., 2005, J. Immunol. 175:4834-4838; Adachi O., et al., 1998, Immunity. 9:143-150; Hoshino K., et al., 1999, J. Immunol. 162:3749-3752). TLR4-deficient mouse lines C3H/HeJ and C57BL/10ScNJ and their respective controls were purchased from The Jackson Laboratory. C57BL/6J Tlr4^−/− mice were generated after greater than 10 generations of backcrossing onto a C57BL/6J background. WT littermates were used as controls. For antioxidant therapy, Tlr4^−/− mice were randomized into 3 groups at 3 weeks of age—NAC (1 g/kg body weight; Sigma-Aldrich) (apocynin (3 mg/kg body weight; Calbiochem; EMD Biosciences) (or vehicle-only drinking water—and then sacrificed at 3 months. Mice were maintained under specific pathogen-free conditions at the animal facility of Yale University School of Medicine. Animal protocols were reviewed and approved by the Animal Care and Use Committee at Yale University. Total antioxidant capacity was measured in cell-free BAL and serum using the Quantitative Assay for Total Antioxidant Potential kit (Oxis International Inc.) according to the manufacturer's instructions. […] Bathocuproine selectively forms a 2:1 complex with Cu^+, which has a maximum absorbance at 490 nm. A standard of a known uric acid concentration was used to create a calibration curve. Results are expressed as μM copper-reducing equivalents.

Tlr4−/− mice [2] = assay: Elastase inhibitory capacity (EIC) in Tlr4−/− mice on antioxidant therapy; format: in vivo, mouse; conditions: NAC 1 g/kg or apocynin 3 mg/kg in drinking water, BAL, 3 months
Text: Tlr4^-/- and MyD88^-/- mice have been previously described (Zhang X., et al., 2005, J. Immunol. 175:4834-4838; Adachi O., et al., 1998, Immunity. 9:143-150; Hoshino K., et al., 1999, J. Immunol. 162:3749-3752). TLR4-deficient mouse lines C3H/HeJ and C57BL/10ScNJ and their respective controls were purchased from The Jackson Laboratory. C57BL/6J Tlr4^-/- mice were generated after greater than 10 generations of backcrossing onto a C57BL/6J background. WT littermates were used as controls. For antioxidant therapy, Tlr4^-/- mice were randomized into 3 groups at 3 weeks of age-NAC (1 g/kg body weight; Sigma-Aldrich) (apocynin (3 mg/kg body weight; Calbiochem; EMD Biosciences) (or vehicle-only drinking water-and then sacrificed at 3 months. Mice were maintained under specific pathogen-free conditions at the animal facility of Yale University School of Medicine. Animal protocols were reviewed and approved by the Animal Care and Use Committee at Yale University. EIC was assessed in BAL and serum using previously described methods (Klumpp T. et al., 1979, Clin. Chem. 25:969-97; […]., et al., 2001, Am. J. Respir. Crit. Care Med. 164:886-890). […] EICs against PPE (type III; Sigma-Aldrich) in BAL and serum were determined using succinyl-[…]-nitroanilide (SAPNA; Sigma-Aldrich) as the elastase substrate. EIC was expressed as percentage of enzyme activity inhibited by serum or BAL samples. […]

Tlr4−/− mice [3] = assay: Reduced GSH/oxidized GSH in BAL of Tlr4−/− mice on antioxidant therapy; format: in vivo, mouse; conditions: NAC 1 g/kg or apocynin 3 mg/kg in drinking water, 3 months
Text: (§1) Tlr4^−/− and MyD88^−/− mice have been previously described (Zhang X., et al., 2005, J. Immunol. 175:4834-4838; Adachi O., et al., 1998, Immunity. 9:143-150; Hoshino K., et al., 1999, J. Immunol. 162:3749-3752). TLR4-deficient mouse lines C3H/HeJ and C57BL/10ScNJ and their respective controls were purchased from The Jackson Laboratory. C57BL/6J Tlr4^−/− mice were generated after greater than 10 generations of backcrossing onto a C57BL/6J background. WT littermates were used as controls. For antioxidant therapy, Tlr4^−/− mice were randomized into 3 groups at 3 weeks of age—NAC (1 g/kg body weight; Sigma-Aldrich) (apocynin (3 mg/kg body weight; Calbiochem; EMD Biosciences) (or vehicle-only drinking water—and then sacrificed at 3 months. Mice were maintained under specific pathogen-free conditions at the animal facility of Yale University School of Medicine. Animal protocols were reviewed and approved by the Animal Care and Use Committee at Yale University. The ratio of reduced GSH to oxidized GSH was measured in cell-free BAL using GSH/GSSG-412 kit (Oxis International Inc.) according to the manufacturer's instructions.

Tlr4−/− mice [4] = assay: Emphysema (lung volume, chord length, histology) in Tlr4−/− mice on antioxidant therapy; format: in vivo, mouse; conditions: NAC 1 g/kg or apocynin 3 mg/kg in drinking water from 3 weeks, sacrificed at 3 months
Text: as §1, with “University. Mice were anesthetized, the trachea was cannulated, and the lungs were removed and inflated with PBS at 25 cm H2O.” for “University.”, “The size” for “The ratio”, “of the lung” for “of reduced GSH to oxidized GSH”, “was evaluated by volume displacement. Hematoxylin and eosin (H&E) or periodic acid-Schiff with diastase (PAS) staining was performed after pressure fixation with Streck solution (Streck Laboratories)” for “was measured”, “in” for “in cell-free BAL using GSH/GSSG-412 kit (Oxis International Inc.) according to”, “the Research Pathology Laboratory at Yale University. […]” for “the manufacturer's instructions.”

[5] = test system: elastase- and cigarette smoke-induced emphysema; conditions: aerosolized; cited from earlier work

Molecule	elastolytic activity in Tlr4−/− MLECs (Tlr4−/− MLECs)	total antioxidant content in BAL (Tlr4−/− mice [1])	total antioxidant content in serum (Tlr4−/− mice [1])	EIC (Tlr4−/− mice [2])	GSH levels (reduced GSH/oxidized GSH ratio) (Tlr4−/− mice [3])	TLR4-mediated emphysema (lung volume, mean linear chord length, histology) (Tlr4−/− mice [4])	protection against emphysema [5]
c1ccc2c(c1)[I+]c1ccccc1-2 [DPI, diphenylene iodonium]	reversed to levels achieved by the broad-acting antioxidant NAC						
CC(=O)N[C@@H](CS)C(=O)O [NAC]	reversed	increased the total antioxidant content in BAL	increased the total antioxidant content	an increase in the EIC	increased GSH levels	prevented TLR4-mediated emphysema	
COc1cc(C(C)=O)ccc1O [apocynin]	reversed to levels achieved by the broad-acting antioxidant NAC	increased the total antioxidant content in BAL	increased the total antioxidant content	an increase in the EIC	increased GSH levels	prevented TLR4-mediated emphysema	
Hyaluronan [HA]							protects against elastase- and cigarette smoke-induced emphysema
